# Patent publication US8580321B2, “Method for reducing the effects of chemotherapy using flagellin related polypeptides” (priority 2003, dated 2013)
# What was measured:
# [1] = tested on: MeI-7, MeI-29, HCT116, HT1080, NKE and MAEC cells; assay: Growth inhibition assay after gamma-irradiation in multiple cell lines; type: cell-based; conditions: 2 μg/ml, irradiated (10, 15 Gy) or not, 48 hours
# Procedure: Based on the results using A549 cells, several additional tumor cell lines (human melanoma MeI-7 and MeI-29, colon cancer HCT116, […] HT1080), immortalized kidney epithelial cells (NKE) and normal mouse aortal endothelial cells (MAEC)) were tested in growth inhibition assay after 10 and 15 Gy of gamma-irradiation, as compared with intact control, with or without pretreatment with CBLB502. Cells were seeded in 96-well plates night before the treatments. CBLB502 (2 μg/ml) was added to the wells 4 hrs, 1 hr or 10 min before irradiation (all points were done in quadruplicate). 48 hours later, methylene blue staining was performed to determine the relative amount of the viable cells in the wells. The percent of growth inhibition was calculated from the OD650 in control non-irradiated wells, taken as 0% inhibition.
# colonic crypts = assay: BrdU incorporation in colonic crypts; type: in vivo, mouse; conditions: BrdU injected 1 hour after CBLB502 i.p.
# Procedure: The colon is much less radiosensitive than small intestine. To further examine the relationship between reduced proliferation in the small intestine and radioprotection, we determined the effect of CBLB502 on BrdU incorporation in the colon. CBLB502 or PBS was injected i.p. in mice, BrdU was injected 1 hour later and samples of […] were obtained after additional 1.5 hours (FIG. 34).
# [2] = Cisplatinum-induced weight loss in FVB mice; type: in vivo, mouse; conditions: CBLB502 0.04 mg/kg s.c. 30 min prior to cisplatinum 10 mg/kg i.p., n=3
# mice = assay: Acute toxicity in mice; type: in vivo, mouse; conditions: s.c. 0.5, 1, 2, 4 and 8 mg/kg, several days after administration
# Procedure: The lethal dose of Salmonella flagellin is between 1 mg/kg (systemic inflammation) and 10 mg/kg (100% lethality). We subcutaneously administered increasing doses of AA′ to mice (4 mice per dose group) at 0.5, 1, 2, 4 and 8 mg/kg. Due to the lower (˜60%) molecular weight, 8 mg/kg of AA′ correspond to a molar-equivalent dose of 13.3 mg/kg of flagellin. […] The reduced toxicity may be sue to the absence of the central pro-inflammatory domain in the AA′ fragment.
# A549 cells = assay: Cell growth inhibition assay (methylene blue) after gamma-irradiation, A549; type: cell-based, human; conditions: 2 μg/ml, with or without 7 or 10 Gy, 72 hours
# Procedure: Tumor cells were seeded in wells of three 96-well plates in 3 different densities (0.5×10^4, 1×10^4 and 2×10^4 cells/well, producing single-cell, spare or semi-contact layer). After cells had attached to plastic, CBLB502 (2 μg/ml) was added to the wells of non-irradiated cells, or 15 min prior to 7 Gy or 10 Gy of gamma-irradiation. Control wells received equal volume of vehicle (PBS). All points were done in quadruplicate. 72 hours after irradiation, medium was replaced with methylene blue in 50%-methanol and the relative numbers of viable cells in wells were measured using spectrophotometer at 650 nm. This experiment was also repeated with fixed dose of 1×10^4 A549 cells/well, CBLB502 was added 1 hour before 5, 10 or 15 Gy of gamma-irradiation (data not shown). We observed a similar effect of flagellin in all tested experiment conditions.
substance,measurement,setting,value
"AA′: flagellin fragment (1-177)-Linker-(402-505), SEQ ID NO: 8",effect on tumor cell growth,[1],no or only a slight inhibitory effect
same,BrdU incorporation in colon,colonic crypts,no effect
same,"mean weight loss compared to cisplatinum alone, FVB mice",[2],lower mean weight loss
same,"detrimental effects (mortality, morbidity, systemic inflammation)",mice,no visible detrimental effects
same,effect on cell numbers,A549 cells,no or slight effect
